Patent US20030180339A1, “Topical treatment of skin” (priority 2002, published 2003)

Tested on: sebum
Test: Oil reduction potential of moisturising gels, blinded randomised study in India, Sebumeter SM810 (Example 34)
Assay type: in vivo, human
Experimental: A study was conducted on 37 normal volunteers in India to determine the oil reduction potential of moisturising gels containing sebum reduction agents.
This study was a blinded, randomised study comparing 2 test gels (containing Cedar wood and Poplar bud) with standard preparation (containing Elubiol).
Women volunteers between the age of 17 and 19 years were screened by measuring sebumeter readings of the left forehead using a Sebumeter SM810. Those volunteers had subumeter reading of […] or above.
These volunteers were instructed to avoid any other face cream, face wash or any other cosmetics during the 8 weeks of the study. After recruitment, volunteers were instructed to use the face wash for the first 2 weeks. This period was considered as the conditioning period.
A baseline sebumeter reading was taken at the end of the conditioning period on 4 sites i.e. left forehead, left cheek, right forehead, and right cheek. Tubes containing the test medicines (which were coded and randomly allocated to each site) were dispensed to the volunteers. Each volunteer was given two test gels, one for left side of the face and the other for right side of the face. […]
The volunteer was requested to make a note of application of face wash and face cream daily on the given diary sheets. Sebumeter readings were taken 3 weeks and 6 weeks later.

**Q.** Which “effect on sebumeter readings, comparison between treatments” value (at 6 weeks) does the source give for CCOC(=O)N1CCN(c2ccc(OC[C@H]3CO[C@](Cn4ccnc4)(c4ccc(Cl)cc4Cl)O3)cc2)CC1 [Elubiol, dichlorophenyl-imidazoltioxolan] here?
**A.** The value was “improved”.

**Q.** And the “fall in the sebum reading at 6 weeks as compared to 3 weeks” value (gel twice a day)?
**A.** The value was “significantly greater fall”.
